Measurements as given in the NIST ThermoML archive (doi:10.1021/je1005483).
Numbers after ± are expanded uncertainties.

Assays:
[1] = xn = mol fraction of the nth substance listed; settings: 101.3 kPa, Liquid; for speed of sound: 298.15 K
[2] = molar heat capacity at constant pressure; xn = mol fraction of the nth substance listed; settings: 298.15 K, 101.3 kPa, Liquid, Flow calorimetry

CC1COC(=O)O1 (configuration not stated) [4-methyl-1,3-dioxolan-2-one] + CC#N
speed of sound ([1]; x1 = 0.0502): 1287.5 ± 2.7 m/s
speed of sound ([1]; x1 = 0.1022): 1296.4 ± 2.7 m/s
speed of sound ([1]; x1 = 0.1512): 1305.1 ± 2.7 m/s
speed of sound ([1]; x1 = 0.2006): 1313.9 ± 2.7 m/s
speed of sound ([1]; x1 = 0.3031): 1331 ± 2.7 m/s
speed of sound ([1]; x1 = 0.3051): 1331.6 ± 2.7 m/s
speed of sound ([1]; x1 = 0.4046): 1351.6 ± 2.8 m/s
speed of sound ([1]; x1 = 0.5067): 1369 ± 2.8 m/s
speed of sound ([1]; x1 = 0.6088): 1386.6 ± 2.8 m/s
speed of sound ([1]; x1 = 0.7035): 1399.3 ± 2.9 m/s
speed of sound ([1]; x1 = 0.7037): 1399.4 ± 2.9 m/s
speed of sound ([1]; x1 = 0.7986): 1415.1 ± 2.9 m/s
speed of sound ([1]; x1 = 0.856): 1422.3 ± 2.9 m/s
speed of sound ([1]; x1 = 0.9052): 1427.8 ± 2.9 m/s
speed of sound ([1]; x1 = 0.9518): 1434.5 ± 2.9 m/s
speed of sound ([1]; x1 = 0.9766): 1438 ± 2.9 m/s
speed of sound ([1]; x1 = 1): 1443 ± 2.9 m/s
mass density ([1]; 308.15 K, x1 = 0.00899): 772.153 ± 0.37 kg/m3
mass density ([1]; 308.15 K, x1 = 0.01974): 779.714 ± 0.36 kg/m3
mass density ([1]; 308.15 K, x1 = 0.02827): 785.631 ± 0.35 kg/m3
mass density ([1]; 308.15 K, x1 = 0.03912): 793.054 ± 0.34 kg/m3
mass density ([1]; 308.15 K, x1 = 0.04976): 800.23 ± 0.34 kg/m3
mass density ([1]; 308.15 K, x1 = 0.05955): 806.732 ± 0.33 kg/m3
mass density ([1]; 308.15 K, x1 = 0.06835): 812.468 ± 0.33 kg/m3
mass density ([1]; 308.15 K, x1 = 0.08237): 821.557 ± 0.32 kg/m3
mass density ([1]; 308.15 K, x1 = 0.09065): 826.854 ± 0.31 kg/m3
mass density ([1]; 308.15 K, x1 = 0.09974): 832.541 ± 0.31 kg/m3
mass density ([1]; 308.15 K, x1 = 0.1473): 861.545 ± 0.28 kg/m3
mass density ([1]; 308.15 K, x1 = 0.2018): 892.585 ± 0.26 kg/m3
mass density ([1]; 308.15 K, x1 = 0.2509): 919.09 ± 0.25 kg/m3
mass density ([1]; 308.15 K, x1 = 0.2983): 943.362 ± 0.24 kg/m3
mass density ([1]; 308.15 K, x1 = 0.4008): 991.468 ± 0.25 kg/m3
mass density ([1]; 308.15 K, x1 = 0.4905): 1029.07 ± 0.3 kg/m3
mass density ([1]; 308.15 K, x1 = 0.5979): 1069.65 ± 0.28 kg/m3
mass density ([1]; 308.15 K, x1 = 0.6902): 1101.28 ± 0.28 kg/m3
mass density ([1]; 308.15 K, x1 = 0.7903): 1132.31 ± 0.29 kg/m3
mass density ([1]; 308.15 K, x1 = 0.901): 1163.56 ± 0.31 kg/m3
mass density ([1]; 308.15 K, x1 = 0.9121): 1166.51 ± 0.32 kg/m3
mass density ([1]; 308.15 K, x1 = 0.9218): 1169.02 ± 0.32 kg/m3
mass density ([1]; 308.15 K, x1 = 0.9302): 1171.25 ± 0.33 kg/m3
mass density ([1]; 308.15 K, x1 = 0.9411): 1174.08 ± 0.32 kg/m3
mass density ([1]; 308.15 K, x1 = 0.9504): 1176.45 ± 0.33 kg/m3
mass density ([1]; 308.15 K, x1 = 0.9609): 1179.12 ± 0.33 kg/m3
mass density ([1]; 308.15 K, x1 = 0.9715): 1181.77 ± 0.34 kg/m3
mass density ([1]; 308.15 K, x1 = 0.9815): 1184.24 ± 0.34 kg/m3
mass density ([1]; 308.15 K, x1 = 1): 1188.73 ± 0.34 kg/m3
mass density ([1]; 318.15 K, x1 = 0.00987): 762.8 ± 0.38 kg/m3
mass density ([1]; 318.15 K, x1 = 0.02015): 770.008 ± 0.37 kg/m3
mass density ([1]; 318.15 K, x1 = 0.04049): 783.973 ± 0.35 kg/m3
mass density ([1]; 318.15 K, x1 = 0.04999): 790.403 ± 0.35 kg/m3
mass density ([1]; 318.15 K, x1 = 0.05968): 796.854 ± 0.34 kg/m3
mass density ([1]; 318.15 K, x1 = 0.06983): 803.478 ± 0.33 kg/m3
mass density ([1]; 318.15 K, x1 = 0.07649): 807.807 ± 0.33 kg/m3
mass density ([1]; 318.15 K, x1 = 0.09048): 816.808 ± 0.32 kg/m3
mass density ([1]; 318.15 K, x1 = 0.1015): 823.802 ± 0.31 kg/m3
mass density ([1]; 318.15 K, x1 = 0.1527): 855.059 ± 0.28 kg/m3
mass density ([1]; 318.15 K, x1 = 0.2011): 882.847 ± 0.27 kg/m3
mass density ([1]; 318.15 K, x1 = 0.2502): 909.428 ± 0.25 kg/m3
mass density ([1]; 318.15 K, x1 = 0.2971): 933.541 ± 0.26 kg/m3
mass density ([1]; 318.15 K, x1 = 0.4037): 983.751 ± 0.28 kg/m3
mass density ([1]; 318.15 K, x1 = 0.5036): 1025.46 ± 0.36 kg/m3
mass density ([1]; 318.15 K, x1 = 0.6004): 1061.56 ± 0.45 kg/m3
mass density ([1]; 318.15 K, x1 = 0.7016): 1095.76 ± 0.54 kg/m3
mass density ([1]; 318.15 K, x1 = 0.7997): 1125.73 ± 0.65 kg/m3
mass density ([1]; 318.15 K, x1 = 0.9005): 1153.94 ± 0.3 kg/m3
mass density ([1]; 318.15 K, x1 = 0.9113): 1156.82 ± 0.77 kg/m3
mass density ([1]; 318.15 K, x1 = 0.934): 1162.75 ± 0.78 kg/m3
mass density ([1]; 318.15 K, x1 = 0.9408): 1164.5 ± 0.31 kg/m3
mass density ([1]; 318.15 K, x1 = 0.9519): 1167.38 ± 0.81 kg/m3
mass density ([1]; 318.15 K, x1 = 0.9608): 1169.62 ± 0.32 kg/m3
mass density ([1]; 318.15 K, x1 = 0.9707): 1172.11 ± 0.83 kg/m3
mass density ([1]; 318.15 K, x1 = 0.9815): 1174.79 ± 0.33 kg/m3
mass density ([1]; 318.15 K, x1 = 0.9908): 1177.08 ± 0.86 kg/m3
mass density ([1]; 318.15 K, x1 = 1): 1179.31 ± 0.33 kg/m3
molar heat capacity at constant pressure ([2]; x1 = 0.02042): 93.86 ± 0.58 J/K/mol
molar heat capacity at constant pressure ([2]; x1 = 0.04818): 95.91 ± 0.59 J/K/mol
molar heat capacity at constant pressure ([2]; x1 = 0.08041): 98.29 ± 0.61 J/K/mol
molar heat capacity at constant pressure ([2]; x1 = 0.09602): 99.45 ± 0.61 J/K/mol
molar heat capacity at constant pressure ([2]; x1 = 0.1021): 99.9 ± 0.62 J/K/mol
molar heat capacity at constant pressure ([2]; x1 = 0.1298): 101.95 ± 0.63 J/K/mol
molar heat capacity at constant pressure ([2]; x1 = 0.1438): 103 ± 0.64 J/K/mol
molar heat capacity at constant pressure ([2]; x1 = 0.1521): 103.61 ± 0.64 J/K/mol
molar heat capacity at constant pressure ([2]; x1 = 0.1801): 105.69 ± 0.65 J/K/mol
molar heat capacity at constant pressure ([2]; x1 = 0.193): 106.65 ± 0.66 J/K/mol
molar heat capacity at constant pressure ([2]; x1 = 0.1988): 107.08 ± 0.66 J/K/mol
molar heat capacity at constant pressure ([2]; x1 = 0.3006): 114.62 ± 0.71 J/K/mol
molar heat capacity at constant pressure ([2]; x1 = 0.3994): 121.92 ± 0.75 J/K/mol
molar heat capacity at constant pressure ([2]; x1 = 0.4507): 125.72 ± 0.78 J/K/mol
molar heat capacity at constant pressure ([2]; x1 = 0.4508): 125.72 ± 0.78 J/K/mol
molar heat capacity at constant pressure ([2]; x1 = 0.5997): 136.77 ± 0.84 J/K/mol
molar heat capacity at constant pressure ([2]; x1 = 0.5999): 136.78 ± 0.84 J/K/mol
molar heat capacity at constant pressure ([2]; x1 = 0.6973): 144.05 ± 0.89 J/K/mol
molar heat capacity at constant pressure ([2]; x1 = 0.7485): 147.88 ± 0.91 J/K/mol
molar heat capacity at constant pressure ([2]; x1 = 0.7494): 147.94 ± 0.91 J/K/mol
molar heat capacity at constant pressure ([2]; x1 = 0.8995): 159.26 ± 0.98 J/K/mol
molar heat capacity at constant pressure ([2]; x1 = 0.9004): 159.33 ± 0.98 J/K/mol
molar heat capacity at constant pressure ([2]; x1 = 1): 166.98 ± 1 J/K/mol
